Test results published in ChEMBL document CHEMBL5058541, “EUbOPEN Chemogenomics Library 2 (NanoBRET)” (2022).

Assays:
[1] = target: Fibroblast growth factor receptor 3 (Homo sapiens) (UniProt P22607); details: Compound concentration 20.0 uM, Protein concentration 2.0 uM, Result type QC Liability
Description: Thermal Shift Assay. Domain: start/stop: P449-E759

[2] = target: T1, Protein AF-9 (Homo sapiens) (UniProt P42568); details: Compound concentration 25.0 uM, Protein concentration 2.0 uM
T1 sequence (whole entry): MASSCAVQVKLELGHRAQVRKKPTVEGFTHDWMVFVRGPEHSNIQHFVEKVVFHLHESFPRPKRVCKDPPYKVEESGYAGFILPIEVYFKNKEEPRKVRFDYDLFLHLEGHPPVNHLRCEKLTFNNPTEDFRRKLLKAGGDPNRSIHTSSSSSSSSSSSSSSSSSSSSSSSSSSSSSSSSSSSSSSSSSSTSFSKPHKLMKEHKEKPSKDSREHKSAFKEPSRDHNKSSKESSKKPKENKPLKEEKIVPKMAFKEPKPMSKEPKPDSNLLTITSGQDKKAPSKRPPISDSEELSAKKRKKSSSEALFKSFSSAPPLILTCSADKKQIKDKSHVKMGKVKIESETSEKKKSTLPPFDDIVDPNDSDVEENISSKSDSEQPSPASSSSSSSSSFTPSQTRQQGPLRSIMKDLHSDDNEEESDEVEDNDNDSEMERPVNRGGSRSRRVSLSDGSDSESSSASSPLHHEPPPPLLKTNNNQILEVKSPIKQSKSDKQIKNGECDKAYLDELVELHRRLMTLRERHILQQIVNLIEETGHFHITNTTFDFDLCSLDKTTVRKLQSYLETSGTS
Description: Thermal Shift Assay. Domain: start/stop M1-D141

Peregrin (Homo sapiens) = target: T2, Peregrin (Homo sapiens) (UniProt P55201); details: Compound concentration 20.0 uM, Protein concentration 2.0 uM, Result type QC Liability
T2 sequence (whole entry): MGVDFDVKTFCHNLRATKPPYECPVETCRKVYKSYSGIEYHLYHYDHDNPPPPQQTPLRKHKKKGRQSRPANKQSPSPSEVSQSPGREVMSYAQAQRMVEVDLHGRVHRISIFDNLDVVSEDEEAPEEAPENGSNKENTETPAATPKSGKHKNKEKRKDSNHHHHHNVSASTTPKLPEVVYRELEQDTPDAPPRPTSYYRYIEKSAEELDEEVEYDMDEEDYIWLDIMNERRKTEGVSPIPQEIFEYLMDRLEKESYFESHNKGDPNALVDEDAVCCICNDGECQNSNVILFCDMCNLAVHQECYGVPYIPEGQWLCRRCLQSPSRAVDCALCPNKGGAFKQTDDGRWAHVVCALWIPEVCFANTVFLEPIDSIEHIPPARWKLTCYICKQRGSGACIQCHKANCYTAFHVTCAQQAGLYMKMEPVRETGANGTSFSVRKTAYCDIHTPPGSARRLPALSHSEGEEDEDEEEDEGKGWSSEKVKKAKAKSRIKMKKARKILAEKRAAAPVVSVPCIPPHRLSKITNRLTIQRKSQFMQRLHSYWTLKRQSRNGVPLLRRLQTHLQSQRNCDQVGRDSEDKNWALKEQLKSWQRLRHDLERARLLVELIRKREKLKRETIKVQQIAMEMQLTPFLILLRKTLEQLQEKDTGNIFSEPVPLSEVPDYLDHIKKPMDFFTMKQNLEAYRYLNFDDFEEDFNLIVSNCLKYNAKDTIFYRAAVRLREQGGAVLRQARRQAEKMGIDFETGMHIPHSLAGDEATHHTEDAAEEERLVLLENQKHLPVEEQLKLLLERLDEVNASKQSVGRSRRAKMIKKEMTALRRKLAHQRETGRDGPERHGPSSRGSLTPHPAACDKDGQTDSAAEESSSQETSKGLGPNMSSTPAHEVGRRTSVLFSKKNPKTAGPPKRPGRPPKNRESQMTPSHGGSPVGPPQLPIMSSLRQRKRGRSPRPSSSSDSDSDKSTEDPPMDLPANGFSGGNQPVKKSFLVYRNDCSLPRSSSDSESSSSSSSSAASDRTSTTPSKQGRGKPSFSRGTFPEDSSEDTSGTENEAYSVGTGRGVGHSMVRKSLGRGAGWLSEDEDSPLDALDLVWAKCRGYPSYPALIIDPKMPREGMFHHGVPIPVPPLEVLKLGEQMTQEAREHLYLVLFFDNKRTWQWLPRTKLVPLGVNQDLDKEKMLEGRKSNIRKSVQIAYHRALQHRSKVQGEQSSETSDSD

[3] = target: T3, Protein ENL (Homo sapiens) (UniProt Q03111); assay: Thermal Shift Assay. Domain: start/stop M1-A148; details: Compound concentration 25.0 uM, Protein concentration 2.0 uM
T3 sequence (whole entry): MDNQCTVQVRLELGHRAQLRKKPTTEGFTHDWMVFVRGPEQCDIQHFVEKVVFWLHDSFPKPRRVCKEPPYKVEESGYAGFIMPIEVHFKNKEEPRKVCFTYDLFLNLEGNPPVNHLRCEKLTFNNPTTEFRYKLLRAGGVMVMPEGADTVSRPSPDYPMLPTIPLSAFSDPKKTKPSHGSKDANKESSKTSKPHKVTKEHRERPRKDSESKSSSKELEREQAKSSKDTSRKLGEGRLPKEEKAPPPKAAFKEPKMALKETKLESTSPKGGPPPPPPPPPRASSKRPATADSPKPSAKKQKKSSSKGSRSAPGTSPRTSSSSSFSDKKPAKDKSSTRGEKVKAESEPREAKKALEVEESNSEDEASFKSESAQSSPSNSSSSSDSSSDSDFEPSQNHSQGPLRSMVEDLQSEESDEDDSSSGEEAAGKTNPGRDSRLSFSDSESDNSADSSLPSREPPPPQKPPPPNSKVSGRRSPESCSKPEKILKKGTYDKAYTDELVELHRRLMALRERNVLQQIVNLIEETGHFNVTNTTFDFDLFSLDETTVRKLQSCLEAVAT

[4] = target: YEATS domain-containing protein 4 (Homo sapiens) (UniProt O95619); assay: Thermal Shift Assay. Domain: start/stop V16-K225; details: Compound concentration 25.0 uM, Protein concentration 2.0 uM
YEATS domain-containing protein 4 (Homo sapiens), sequence (O95619 whole entry, the tested form may be a part): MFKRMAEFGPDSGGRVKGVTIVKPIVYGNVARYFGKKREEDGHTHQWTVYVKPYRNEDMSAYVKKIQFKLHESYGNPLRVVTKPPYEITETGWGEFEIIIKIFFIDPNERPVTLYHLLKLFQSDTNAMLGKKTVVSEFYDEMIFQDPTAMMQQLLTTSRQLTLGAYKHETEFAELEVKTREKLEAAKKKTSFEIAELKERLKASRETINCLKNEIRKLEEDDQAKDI

Fibroblast growth factor receptor 3 (Homo sapiens), sequence (P22607 23-806 limits assumed): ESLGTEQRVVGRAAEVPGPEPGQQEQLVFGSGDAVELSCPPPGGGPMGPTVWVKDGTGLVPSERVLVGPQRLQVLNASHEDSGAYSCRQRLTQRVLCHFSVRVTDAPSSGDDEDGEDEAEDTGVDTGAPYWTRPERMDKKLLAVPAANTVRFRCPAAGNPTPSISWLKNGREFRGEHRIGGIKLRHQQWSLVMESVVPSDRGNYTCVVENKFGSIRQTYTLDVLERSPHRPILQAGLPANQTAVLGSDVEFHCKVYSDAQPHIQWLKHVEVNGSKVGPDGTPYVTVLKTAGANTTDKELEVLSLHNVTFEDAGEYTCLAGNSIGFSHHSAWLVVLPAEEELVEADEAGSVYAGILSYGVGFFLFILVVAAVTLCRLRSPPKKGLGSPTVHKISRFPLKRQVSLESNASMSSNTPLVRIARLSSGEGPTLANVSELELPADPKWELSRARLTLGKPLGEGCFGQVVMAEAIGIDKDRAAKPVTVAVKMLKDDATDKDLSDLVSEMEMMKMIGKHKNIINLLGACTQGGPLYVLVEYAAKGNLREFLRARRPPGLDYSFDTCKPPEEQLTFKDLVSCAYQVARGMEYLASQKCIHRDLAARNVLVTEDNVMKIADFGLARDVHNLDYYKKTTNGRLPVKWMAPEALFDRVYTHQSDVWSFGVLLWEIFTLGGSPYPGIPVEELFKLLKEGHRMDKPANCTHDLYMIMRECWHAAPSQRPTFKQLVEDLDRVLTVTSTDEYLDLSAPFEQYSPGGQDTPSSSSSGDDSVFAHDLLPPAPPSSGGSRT

`CN(C)C(=O)c1ccc(-c2cc(C(=O)N[C@@H]3CCc4ccccc43)no2)cc1O` showed a ΔTm [1] of -0.162 c, a ΔTm [2] of 5.15 c and a ΔTm (Peregrin (Homo sapiens)) of -0.349 c. The ΔTm [3] was 3.61 c and the ΔTm [4] was -0.19 c.
